Literature values in patent publication US20020146399A1, “Sorbic acid product comprising probiotics as addition to feedstuffs in agricultural livestock rearing” (priority 2001, published 2002).

Assays:
[1] = extensive data and decades of use in human food and animal feeds

## C/C=C/C=C/C(=O)O [Sorbic acid, trans,trans-2,4-hexadienoic acid]
other
  solubility in cold water: dissolves only slightly
[1]
  toxicity: virtually nontoxic
